The results in this text go back to ChEMBL document CHEMBL3272106, “Synthesis and narcotic agonist-antagonist evaluation of some 2,6-methano-3-benzazocine-11 propanols. Analogues of the ring C bridged oripavine-7-mehtanols” (1977).

Active and inactive are the calls of the source. No cut-off for these calls is given here.

For assay [1], the system named is Mus musculus. Briefly: Narcotic agonist activity in sc dosed albino mouse assessed as protection against acetylcholine-induced writhing administered 20 mins prior to acetylcholine challenge measured for 2 mins. Type of assay: functional. In general terms: Writhing tests count abdominal constrictions after an irritant is injected.
The subject of assay [2] is Rattus norvegicus. The experiment in a line: Narcotic antagonist activity in sc dosed rat assessed as 50% inhibition of phenazocine-induced response. Type of assay: functional.
For assay [3], the system named is Mus musculus. The experiment in a line: Narcotic agonist activity in albino mouse assessed as protection against acetylcholine-induced writhing at 25 mg/kg, sc administered 20 mins prior to acetylcholine challenge measured for 2 mins relative to control. Type of assay: functional. The note with it: route subcutaneous.
Assay [4] has as its system Rattus norvegicus. The experiment in a line: Narcotic antagonist activity in rat assessed as inhibition of phenazocine-induced response at 80 mg/kg, sc. Details: dose 80 mg/kg. Type of assay: functional, organism-based.
Assay [5] has as its system Rattus norvegicus. The experiment in a line: Narcotic antagonist activity in rat assessed as inhibition of phenazocine-induced response at 80 mg/kg, sc relative to nalorphine. Type of assay: functional. Further details: scale not given: the % may be the effect or the level left. Conditions: route subcutaneous.
The mark [6] stands for this setting: Mus musculus, sc, read-out: ED50.

The ED50 is the midpoint of the dose-response relation. Consider `CN1CC[C@]2(C)c3cc(O)ccc3C[C@@H]1[C@H]2CCC(C)(O)C(C)(C)C.CS(=O)(=O)O` (stereo in doubt; 4f), for which the ED50 with Mus musculus [1] is >25 mg/kg.
Regarding `CC(C)(C)C(C)(O)CC[C@@H]1[C@H]2Cc3ccc(O)cc3[C@@]1(C)CCN2CC1CC1.CS(=O)(=O)O` (single isomer, unassigned; isomer I), in the assay on Mus musculus [1], the ED50 was >25 mg/kg. In the assay on Rattus norvegicus [2], the AD50 is 0.27 mg/kg. Also, the Activity in the assay with Mus musculus [3] is reported as <50%.
`CN1CC[C@]2(C)c3cc(O)ccc3C[C@@H]1[C@H]2CCC(C)(O)C(C)(C)C` (stereo in doubt; 4f): in the assay with Rattus norvegicus [4], the inhibition entry was “inactive”.
On to `CC(C)(C)C(C)(O)CC[C@]1(C)[C@H]2Cc3ccc(O)cc3[C@@]1(C)CCN2CC1CC1.CS(=O)(=O)O` (stereo in doubt; 4q), for which the AD50 with Rattus norvegicus [2] came to 0.022 mg/kg. In the assay on Mus musculus [3], the Activity is <50%.
Regarding `C[C@H]1[C@@H]2Cc3ccc(O)cc3[C@]1(C)CCN2C` [METAZOCINE], the ED50 in the assay with Mus musculus [1] (setting [6]) worked out at 0.54 mg/kg. For the same compound, the inhibition entry with Rattus norvegicus [4] is “inactive”.
As to `CN1CC[C@]2(C)c3cc(O)ccc3C[C@@H]1[C@@]2(C)CCC(C)(O)C(C)(C)C` (stereo not given in full) [listing 1 of 2 here], in the assay with Mus musculus [1] (setting [6]), the ED50 is > 25 mg/kg. For the same compound, in the assay on Mus musculus [3], the Activity was <50%.
`C[C@H]1[C@H]2Cc3ccc(O)cc3[C@]1(C)CCN2CC1CC1` [CYCLAZOCINE]: the ED50 in the assay on Mus musculus [1] (setting [6]) came out at 0.15 mg/kg. The AD50 in the assay with Rattus norvegicus [2] was determined as 0.007 mg/kg.
In the case of `CO[C@@]12CC[C@@]3(C[C@@H]1[C@](C)(O)C(C)(C)C)[C@H]1Cc4ccc(O)c5c4[C@@]3(CCN1CC1CC1)[C@H]2O5` [BUPRENORPHINE], the AD50 in the assay on Rattus norvegicus [2] turned out to be 0.11 mg/kg.
Take `CCCCC(C)(O)CC[C@@H]1[C@H]2Cc3ccc(O)cc3[C@@]1(C)CCN2C.CS(=O)(=O)O` (stereo not given in full): in the assay with Mus musculus [1] (setting [6]), the median effective dose (ED50) worked out at 2.5 mg/kg. Further, the inhibition entry with Rattus norvegicus [4] was “inactive”.
As to `C=CCN1CC[C@]23c4c5ccc(O)c4O[C@H]2[C@@H](O)C=C[C@H]3[C@H]1C5` [NALORPHINE], in the assay on Rattus norvegicus [2], the AD50 is 0.1 mg/kg.
As to `CC(C)(O)CC[C@]1(C)[C@H]2Cc3ccc(O)cc3[C@@]1(C)CCN2CC1CC1.Cl`, the ED50 in the assay on Mus musculus [1] (setting [6]) is 4.5 mg/kg. The AD50 with Rattus norvegicus [2] is 0.006 mg/kg.
With `CN1CC[C@]2(C)c3cc(O)ccc3C[C@@H]1[C@@]2(C)CCC(C)(O)C(C)(C)C` (stereo not given in full) [listing 2 of 2 here], the inhibition result in the assay on Rattus norvegicus [4] was “inactive”.
As to `CCC(C)(O)CC[C@@H]1[C@H]2Cc3ccc(O)cc3[C@@]1(C)CCN2CC1CC1.CS(=O)(=O)O` (stereo not given in full), the ED50 with Mus musculus [1] (setting [6]) was found to be 7.9 mg/kg. Further, the AD50 in the assay with Rattus norvegicus [2] is 0.04 mg/kg.
For `CC(C)(O)CC[C@@H]1[C@H]2Cc3ccc(O)cc3[C@@]1(C)CCN2CC1CC1`, in that order: 16 mg/kg and 0.046 mg/kg.
The like results for `CN1CC[C@]2(C)c3cc(O)ccc3C[C@@H]1[C@@]2(C)CCC(C)(C)O` were, in that order, 3.8 mg/kg and 2.3 mg/kg.
As to `CC(C)(C)C(C)(O)CC[C@]1(C)[C@H]2Cc3ccc(O)cc3[C@@]1(C)CCN2CC1CC1.CS(=O)(=O)O` (single isomer, unassigned; isomer II), the AD50 with Rattus norvegicus [2] stood at 0.71 mg/kg.
Consider `CN1CC[C@]2(C)c3cc(O)ccc3C[C@@H]1[C@H]2CCC(C)(O)C(C)(C)C.CS(=O)(=O)O` (stereo in doubt; 4e), for which the ED50 in the assay with Mus musculus [1] was >75 mg/kg. Also, the Activity with Mus musculus [3] is listed as <50%.
Turning to `CC(C)(C)C(C)(O)CC[C@@H]1[C@H]2Cc3ccc(O)cc3[C@@]1(C)CCN2CC1CC1.CS(=O)(=O)O` (single isomer, unassigned; isomer II), in the assay on Mus musculus [1], the ED50 was 9 mg/kg. For the same compound, the AD50 in the assay with Rattus norvegicus [2] was 1.1 mg/kg.
Regarding `CN1CC[C@]2(C)c3cc(O)ccc3C[C@@H]1[C@@]2(C)CCC(C)(O)C(C)(C)C.CS(=O)(=O)O` (mixture of isomers), the ED50 with Mus musculus [1] (setting [6]) was > 25 mg/kg. Also, the AD50 in the assay with Rattus norvegicus [2] is 0.33 mg/kg. The Activity in the assay with Mus musculus [3] is <50%; in the assay with Rattus norvegicus [5], 30%.
In the case of `CCCCC(C)(O)CC[C@@H]1[C@H]2Cc3ccc(O)cc3[C@@]1(C)CCN2CC1CC1.CS(=O)(=O)O` (stereo not given in full), the ED50 in the assay on Mus musculus [1] (setting [6]) amounted to 6.5 mg/kg. The AD50 with Rattus norvegicus [2] came to 0.025 mg/kg.
For the compound `CN1CC[C@]2(C)c3cc(O)ccc3C[C@@H]1[C@H]2CCC(C)(C)O`, the ED50 with Mus musculus [1] (setting [6]) was determined as 8.2 mg/kg. Further, the inhibition entry in the assay with Rattus norvegicus [4] was “inactive”.
For `CCCC(C)(O)CC[C@@H]1[C@H]2Cc3ccc(O)cc3[C@@]1(C)CCN2C.CS(=O)(=O)O` (stereo not given in full), in that order: 2.6 mg/kg and “inactive”.
For `CCCC(C)(O)CC[C@@H]1[C@H]2Cc3ccc(O)cc3[C@@]1(C)CCN2CC1CC1.CS(=O)(=O)O` (stereo not given in full), in the assay on Mus musculus [1] (setting [6]), the ED50 worked out at 7.6 mg/kg. For the same compound, the AD50 in the assay on Rattus norvegicus [2] is 0.019 mg/kg.
For `CCC(C)(O)CC[C@@H]1[C@H]2Cc3ccc(O)cc3[C@@]1(C)CCN2C.CS(=O)(=O)O` (stereo not given in full), the ED50 in the assay with Mus musculus [1] (setting [6]) amounted to 3.3 mg/kg. In addition, the inhibition result in the assay with Rattus norvegicus [4] is “inactive”.
